Assay results from ChEMBL document CHEMBL1142749, “P2-P3 conformationally constrained ketoamide-based inhibitors of cathepsin K” (Bioorg Med Chem Lett, 2005).
Values after ≈ are worked out from the molar mass of the structure shown.

Columns and labels:
[1] = molecular target: Cathepsin B (Homo sapiens, UniProt P07858); assay: Inhibition of 10 µM Cbz-Phe-Arg-AMC binding to human cathepsin B activity in fluorescence assay with 100 mM NaOAc
[2] = Steady-state volume of distribution of compound was determined after i.v. administration; assay type: ADME, organism-based; conditions: rat, in vivo, iv; for Vd: read-out: VSS
[3] = Oral bioavailability (i.v. administration); assay type: ADME, organism-based; conditions: rat, in vivo
[4] = The total clearance after i.v. administration; assay type: ADME, organism-based; conditions: rat, in vivo, iv
[5] = Terminal half-life dosed as a solution in male Han Wistar rat administered i.v.; assay type: ADME, organism-based; conditions: in vivo, iv; for half-life: male, Han Wistar
[6] = molecular target: Procathepsin L (Homo sapiens, UniProt P07711); assay: Inhibition of 5 µM Cbz-Phe-Arg-AMC bindign to human cathepsin L activity in fluorescence assay with 100 mM NaOAc
[7] = molecular target: T1, Cathepsin K (Homo sapiens, UniProt P43235); assay: Inhibition of 10 µM Cbz-Phe-Arg-AMC binding to human cathepsin K in fluorescence assay with 100 mM NaOAc
T1 sequence (P43235 whole entry): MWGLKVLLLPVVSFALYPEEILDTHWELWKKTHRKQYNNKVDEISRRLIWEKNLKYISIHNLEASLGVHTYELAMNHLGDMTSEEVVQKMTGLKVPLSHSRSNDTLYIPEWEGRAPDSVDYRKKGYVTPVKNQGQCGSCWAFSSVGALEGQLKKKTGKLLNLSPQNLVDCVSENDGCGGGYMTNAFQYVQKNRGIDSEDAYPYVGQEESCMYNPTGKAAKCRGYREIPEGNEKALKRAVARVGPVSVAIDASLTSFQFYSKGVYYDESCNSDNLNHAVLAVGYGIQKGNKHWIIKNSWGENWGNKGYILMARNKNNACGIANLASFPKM

[8] = The equilibrium solubility exhibited in a fasted state-simulated intestinal fluid at pH 6.8; assay type: ADME; conditions: human
[9] = molecular target: T2, Cathepsin L2 (Homo sapiens, UniProt O60911); assay: Inhibition of 2 µM Cbz-Phe-Arg-AMC binding to human cathepsin V activity in fluorescence assay with 100 mM NaOAc
T2 sequence (O60911 whole entry): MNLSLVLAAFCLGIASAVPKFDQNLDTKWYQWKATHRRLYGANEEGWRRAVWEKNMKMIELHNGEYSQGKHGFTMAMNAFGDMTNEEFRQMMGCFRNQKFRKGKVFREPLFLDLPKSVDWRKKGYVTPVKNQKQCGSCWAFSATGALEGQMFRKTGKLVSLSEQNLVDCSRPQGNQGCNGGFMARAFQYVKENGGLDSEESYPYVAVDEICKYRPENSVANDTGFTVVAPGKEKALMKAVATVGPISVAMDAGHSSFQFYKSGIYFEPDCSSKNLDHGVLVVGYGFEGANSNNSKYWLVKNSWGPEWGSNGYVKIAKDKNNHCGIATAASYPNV

[10] = molecular target: Cathepsin S (Homo sapiens, UniProt P25774); assay: Inhibition of 10 µM Cbz-Val-Val-Arg-AMC binding to human cathepsin S in fluorescence assay with 100 mM NaOAc
Chain of Cathepsin S (P25774 whole entry): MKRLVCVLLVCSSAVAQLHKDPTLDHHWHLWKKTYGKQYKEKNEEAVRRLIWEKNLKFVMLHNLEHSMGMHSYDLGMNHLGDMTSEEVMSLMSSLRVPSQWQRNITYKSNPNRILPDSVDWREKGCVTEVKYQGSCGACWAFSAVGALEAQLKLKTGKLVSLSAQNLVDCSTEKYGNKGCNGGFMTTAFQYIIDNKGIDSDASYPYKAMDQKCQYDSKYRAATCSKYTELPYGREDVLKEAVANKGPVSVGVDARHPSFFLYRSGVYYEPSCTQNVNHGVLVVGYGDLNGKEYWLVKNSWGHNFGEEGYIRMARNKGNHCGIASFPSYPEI

Chain of Procathepsin L (P07711 whole entry): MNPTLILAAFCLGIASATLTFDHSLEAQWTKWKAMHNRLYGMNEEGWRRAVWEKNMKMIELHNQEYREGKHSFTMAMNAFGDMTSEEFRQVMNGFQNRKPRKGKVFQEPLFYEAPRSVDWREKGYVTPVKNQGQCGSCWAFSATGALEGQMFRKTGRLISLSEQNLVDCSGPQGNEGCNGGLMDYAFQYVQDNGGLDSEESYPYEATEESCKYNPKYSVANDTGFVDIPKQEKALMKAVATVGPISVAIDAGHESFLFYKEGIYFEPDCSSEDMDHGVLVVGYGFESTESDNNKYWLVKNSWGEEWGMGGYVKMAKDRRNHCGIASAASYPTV

Row | SMILES | IC50 [1] [µM] | Vd [2] [L/kg] | bioavailability [3] [%] | clearance [4] [mL/min/kg] | half-life [5] [min] | IC50 [6] [µM] | IC50 [7] [nM] | solubility thermodynamic ([8]; read-out: FS-SIF) [µg/mL] | IC50 [9] [µM] | IC50 [10] [nM] | VSS [2] [mL/kg] | CL [4] [mL/min/kg] | T1/2 [5] [min] | solubility thermodynamic [8] [µg/mL]
1 | CCCC[C@H](NC(=O)O[C@H](Cc1nnc(-c2ccc(F)cc2)o1)C(C)(C)C)C(=O)C(=O)Nc1ccn[nH]1 | 3500 | 3.6 | 88 | 33 | 150 | 3800 | 4.9 | 58 (≈ 113 µM) | 230 | 110000 |  |  |  | 
2 | CCCC[C@H](NC(=O)O[C@H](Cc1nnc(-c2ccccc2)o1)C(C)(C)C)C(=O)C(=O)N[C@H](C)c1ccccc1 | 12 |  |  |  |  | 10 |  |  | 1.6 | 750 |  |  |  | 
3 | CCCC[C@H](NC(=O)O[C@H](Cn1cnc(-c2ccc(C(F)(F)F)cc2)c1)C(C)(C)C)C(=O)C(=O)Nc1nccs1 | 870 | 1.8 | 43 | 15 | 280 | 1000 |  | 48 (≈ 82.8 µM) | 36 | 19000 |  |  |  | 
4 | CCCC[C@H](NC(=O)O[C@H](Cc1nnc(-c2ccc(C(F)(F)F)cc2)o1)C(C)(C)C)C(=O)C(=O)Nc1ccn[nH]1 | 45 | 1.9 | 50 | 11 | 530 | 69 |  | 61 (≈ 108 µM) | 1.2 | 520 |  |  |  | 
5 | CCCC[C@H](NC(=O)O[C@H](Cc1nnc(-c2ccc(F)cc2)o1)C(C)(C)C)C(=O)C(=O)N[C@H](C)c1ccccc1 | 9.8 |  |  |  |  | 33 |  |  | 34 | 530 |  |  |  | 
6 | CCCC[C@H](NC(=O)O[C@H](Cc1nnc(-c2ccccc2)o1)C(C)(C)CC)C(=O)C(=O)N[C@H](C)c1ccccc1 | 56 |  |  |  |  | 17 | 1.5 |  | 2.8 | 720 |  |  |  | 
7 | CCCC[C@H](NC(=O)O[C@H](Cn1ccc(-c2ccc(C(F)(F)F)cc2)n1)C(C)(C)C)C(=O)C(=O)Nc1ccccn1 | 107 | 1.8 | 34 | 41 | 210 | 240 | 8.1 | 380 (≈ 662 µM) | 4.5 | 3700 |  |  |  | 
8 | CCCC[C@H](NC(=O)O[C@H](Cc1nnc(-c2ccc(F)cc2)o1)C(C)(C)C)C(=O)C(=O)NCc1cccnc1 | 18 | 1.4 | 46 | 11 | 230 | 130 |  | 490 (≈ 908 µM) | 14 | 2700 |  |  |  | 
9 | CCCC[C@H](NC(=O)O[C@H](Cc1nnc(-c2ccccc2)o1)C(C)C)C(=O)C(=O)N[C@H](C)c1ccccc1 | 31 |  |  |  |  | 17 | 0.83 |  | 5.6 | 3700 |  |  |  | 
10 | CCCC[C@H](NC(=O)O[C@H](Cn1cc(-c2ccc(C(F)(F)F)cc2)cn1)C(C)(C)C)C(=O)C(=O)Nc1ccn[nH]1 | 10 | 2.1 | 45 | 9.1 | 340 | 36 | 32 | 97 (≈ 172 µM) | 0.43 | 78 |  |  |  | 
11 | CCCC[C@H](NC(=O)O[C@H](CN1CCN(c2ccc(C(F)(F)F)cc2)C1=O)C(C)(C)C)C(=O)C(=O)Nc1ccn[nH]1 | 60 | 5 | 27 | 55 | 340 | 37 |  | 43 (≈ 74.1 µM) | 1.7 | 540 |  |  |  | 
12 | CCCC[C@H](NC(=O)O[C@H](Cn1cnc(-c2ccc(C(F)(F)F)cc2)c1)C(C)(C)C)C(=O)C(=O)Nc1ccn[nH]1 | 27 | 2.4 | 55 | 15 | 460 | 10 |  | 130 (≈ 231 µM) | 0.13 | 160 |  |  |  | 
13 | CCCC[C@H](NC(=O)O[C@H](Cn1ccc(-c2ccc(C(F)(F)F)cc2)n1)C(C)(C)C)C(=O)C(=O)Nc1ccn[nH]1 | 20 |  | 9.6 |  |  | 8.7 | 72 | 110 (≈ 196 µM) | 0.17 | 210 | 320 | 0.11 | 91 | 
14 | CCCC[C@H](NC(=O)O[C@H](Cc1nnc(-c2ccc(C(F)(F)F)cc2)o1)C(C)(C)C)C(=O)C(=O)N[C@H](C)c1ccccc1 | 32 |  |  |  |  | 190 |  |  | 5 | 1600 |  |  |  | 
15 | CCCC[C@H](NC(=O)O[C@H](Cn1ccc(-c2ccc(C(F)(F)F)cc2)n1)C(C)(C)C)C(=O)C(=O)NCc1ccno1 | 870 | 1.7 | 40 | 3.2 | 400 | 1000 | 5.8 |  | 36 | 19000 |  |  |  | 180 (≈ 312 µM)
16 | CCCC[C@H](NC(=O)O[C@H](Cc1nnc(-c2ccc(C(F)(F)F)cc2)o1)C(C)(C)C)C(=O)C(=O)NN1CCOC1=O | 5.2 | 3.1 | 79 | 11 | 410 | 160 |  | 170 (≈ 291 µM) | 7.1 | 1200 |  |  |  | 
17 | CCCC[C@H](NC(=O)OC(Cc1nnc(-c2ccc(F)cc2)o1)C(C)(C)C)C(=O)C(=O)N[C@H]1CCCNC1=O (stereo partly specified) | 6.2 | 1.4 | 17 | 35 | 140 | 15 | 0.65 | 620 (≈ 1140 µM) | 1.3 | 810 |  |  |  | 
